# From ChEMBL document CHEMBL2331181, “Synthesis and in vitro cytotoxic activity evaluation of novel heterocycle bridged carbothioamide type isosteviol derivatives as antitumor agents” (Bioorg Med Chem Lett, 2013)
# Experiments:
# Format in all cases: functional, cell-based
# A549 = test: Cytotoxicity against human A549 cells after 48 hrs by MTT assay; conditions: A549, 48 h
# HeLa = test: Cytotoxicity against human HeLa cells after 48 hrs by MTT assay
# Raji = test: Cytotoxicity against human Raji cells after 48 hrs by MTT assay
# SGC-7901 = test: Cytotoxicity against human SGC7901 cells after 48 hrs by MTT assay; conditions: SGC-7901, 48 h
compound,measurement,setting,value
CCOC(=O)[C@]1(C)CCC[C@@]2(C)[C@@H]3CC[C@@]4(C)C[C@]3(CC[C@@H]21)[C@@H]1CON(C(=S)Nc2ccccc2)[C@@H]14,IC50,A549,> 50 µM
same,IC50,HeLa,> 50 µM
same,IC50,Raji,32.5 µM
same,IC50,SGC-7901,27.6 µM
CCOC(=O)[C@]1(C)CCC[C@@]2(C)[C@@H]3CC[C@@]4(C)C[C@]3(CC[C@@H]21)[C@@H]1CON(C(=S)Nc2ccccc2F)[C@@H]14,IC50,A549,> 50 µM
same,IC50,HeLa,> 50 µM
same,IC50,Raji,32.7 µM
same,IC50,SGC-7901,28.2 µM
CCOC(=O)[C@]1(C)CCC[C@@]2(C)[C@@H]3CC[C@@]4(C)C[C@]3(CC[C@@H]21)[C@@H]1CON(C(=S)Nc2cccc(F)c2)[C@@H]14,IC50,A549,> 50 µM
same,IC50,HeLa,> 50 µM
same,IC50,Raji,36.4 µM
same,IC50,SGC-7901,> 50 µM
CCOC(=O)[C@]1(C)CCC[C@@]2(C)[C@@H]3CC[C@@]4(C)C[C@]3(CC[C@@H]21)[C@@H]1CON(C(=S)Nc2ccc(F)cc2)[C@@H]14,IC50,A549,> 50 µM
same,IC50,HeLa,> 50 µM
same,IC50,Raji,> 50 µM
same,IC50,SGC-7901,> 50 µM
CCOC(=O)[C@]1(C)CCC[C@@]2(C)[C@@H]3CC[C@@]4(C)C[C@]3(CC[C@@H]21)[C@@H]1CON(C(=S)Nc2ccccc2Cl)[C@@H]14,IC50,A549,> 50 µM
same,IC50,HeLa,> 50 µM
same,IC50,Raji,35.6 µM
same,IC50,SGC-7901,43.6 µM
CCOC(=O)[C@]1(C)CCC[C@@]2(C)[C@@H]3CC[C@@]4(C)C[C@]3(CC[C@@H]21)[C@@H]1CON(C(=S)Nc2cccc(Cl)c2)[C@@H]14,IC50,A549,> 50 µM
same,IC50,HeLa,> 50 µM
same,IC50,Raji,> 50 µM
same,IC50,SGC-7901,> 50 µM
CCOC(=O)[C@]1(C)CCC[C@@]2(C)[C@@H]3CC[C@@]4(C)C[C@]3(CC[C@@H]21)[C@@H]1CON(C(=S)Nc2ccc(Cl)cc2)[C@@H]14,IC50,A549,> 50 µM
same,IC50,HeLa,> 50 µM
same,IC50,Raji,> 50 µM
same,IC50,SGC-7901,> 50 µM
CCOC(=O)[C@]1(C)CCC[C@@]2(C)[C@@H]3CC[C@@]4(C)C[C@]3(CC[C@@H]21)[C@@H]1CON(C(=S)Nc2ccccc2Br)[C@@H]14,IC50,A549,> 50 µM
same,IC50,HeLa,> 50 µM
same,IC50,Raji,> 50 µM
same,IC50,SGC-7901,> 50 µM
CCOC(=O)[C@]1(C)CCC[C@@]2(C)[C@@H]3CC[C@@]4(C)C[C@]3(CC[C@@H]21)[C@@H]1CON(C(=S)Nc2cccc(Br)c2)[C@@H]14,IC50,A549,> 50 µM
same,IC50,HeLa,> 50 µM
same,IC50,Raji,> 50 µM
same,IC50,SGC-7901,36.4 µM
CCOC(=O)[C@]1(C)CCC[C@@]2(C)[C@@H]3CC[C@@]4(C)C[C@]3(CC[C@@H]21)[C@@H]1CON(C(=S)Nc2ccc(Br)cc2)[C@@H]14,IC50,A549,> 50 µM
same,IC50,HeLa,> 50 µM
same,IC50,Raji,> 50 µM
same,IC50,SGC-7901,> 50 µM
CCOC(=O)[C@]1(C)CCC[C@@]2(C)[C@@H]3CC[C@@]4(C)C[C@]3(CC[C@@H]21)[C@@H]1CON(C(=S)Nc2ccccc2C)[C@@H]14,IC50,A549,> 50 µM
same,IC50,HeLa,> 50 µM
same,IC50,Raji,24 µM
same,IC50,SGC-7901,38.3 µM
CCOC(=O)[C@]1(C)CCC[C@@]2(C)[C@@H]3CC[C@@]4(C)C[C@]3(CC[C@@H]21)[C@@H]1CON(C(=S)Nc2cccc(C)c2)[C@@H]14,IC50,A549,> 50 µM
same,IC50,HeLa,> 50 µM
same,IC50,Raji,43.2 µM
same,IC50,SGC-7901,34.1 µM
CCOC(=O)[C@]1(C)CCC[C@@]2(C)[C@@H]3CC[C@@]4(C)C[C@]3(CC[C@@H]21)[C@@H]1CON(C(=S)Nc2ccc(C)cc2)[C@@H]14,IC50,A549,45.8 µM
same,IC50,HeLa,> 50 µM
same,IC50,Raji,27.6 µM
same,IC50,SGC-7901,37.2 µM
CCOC(=O)[C@]1(C)CCC[C@@]2(C)[C@@H]3CC[C@@]4(C)C[C@]3(CC[C@@H]21)[C@@H]1CON(C(=S)Nc2ccccc2OC)[C@@H]14,IC50,A549,> 50 µM
same,IC50,HeLa,> 50 µM
same,IC50,Raji,> 50 µM
same,IC50,SGC-7901,> 50 µM
CCOC(=O)[C@]1(C)CCC[C@@]2(C)[C@@H]3CC[C@@]4(C)C[C@]3(CC[C@@H]21)[C@@H]1CON(C(=S)Nc2cccc(OC)c2)[C@@H]14,IC50,A549,> 50 µM
same,IC50,HeLa,> 50 µM
same,IC50,Raji,> 50 µM
same,IC50,SGC-7901,> 50 µM
CCOC(=O)[C@]1(C)CCC[C@@]2(C)[C@@H]3CC[C@@]4(C)C[C@]3(CC[C@@H]21)[C@@H]1CON(C(=S)Nc2ccc(OC)cc2)[C@@H]14,IC50,A549,> 50 µM
same,IC50,HeLa,> 50 µM
same,IC50,Raji,37.4 µM
same,IC50,SGC-7901,> 50 µM
CCOC(=O)[C@]1(C)CCC[C@@]2(C)[C@@H]3CC[C@@]4(C)C[C@]3(CC[C@@H]21)[C@@H]1CON(C(=S)Nc2ccccc2[N+](=O)[O-])[C@@H]14,IC50,A549,> 50 µM
same,IC50,HeLa,> 50 µM
same,IC50,Raji,35.4 µM
same,IC50,SGC-7901,> 50 µM
CCOC(=O)[C@]1(C)CCC[C@@]2(C)[C@@H]3CC[C@@]4(C)C[C@]3(CC[C@@H]21)[C@@H]1CON(C(=S)Nc2cccc([N+](=O)[O-])c2)[C@@H]14,IC50,A549,> 50 µM
same,IC50,HeLa,> 50 µM
same,IC50,Raji,> 50 µM
same,IC50,SGC-7901,> 50 µM
CCOC(=O)[C@]1(C)CCC[C@@]2(C)[C@@H]3CC[C@@]4(C)C[C@]3(CC[C@@H]21)[C@@H]1CON(C(=S)Nc2ccc([N+](=O)[O-])cc2)[C@@H]14,IC50,A549,> 50 µM
same,IC50,HeLa,> 50 µM
same,IC50,Raji,23.5 µM
same,IC50,SGC-7901,49.8 µM
CCOC(=O)[C@]1(C)CCC[C@@]2(C)[C@@H]3CC[C@@]4(C)C[C@]3(CC[C@@H]21)[C@@H]1CON(C(=S)Nc2c(C)cccc2C)[C@@H]14,IC50,A549,41.6 µM
same,IC50,HeLa,> 50 µM
same,IC50,Raji,19.7 µM
same,IC50,SGC-7901,27.4 µM
CCOC(=O)[C@]1(C)CCC[C@@]2(C)[C@@H]3CC[C@@]4(C)C[C@]3(CC[C@@H]21)[C@@H]1CON(C(=S)Nc2ccc(Cl)cc2Cl)[C@@H]14,IC50,A549,43.2 µM
same,IC50,HeLa,> 50 µM
same,IC50,Raji,21.9 µM
same,IC50,SGC-7901,25.1 µM
CCOC(=O)[C@]1(C)CCC[C@@]2(C)[C@@H]3CC[C@@]4(C)C[C@]3(CC[C@@H]21)c1cn(C(=S)Nc2ccccc2)nc14,IC50,A549,17.6 µM
same,IC50,HeLa,27.1 µM
same,IC50,Raji,18.9 µM
same,IC50,SGC-7901,15.7 µM
CCOC(=O)[C@]1(C)CCC[C@@]2(C)[C@@H]3CC[C@@]4(C)C[C@]3(CC[C@@H]21)c1cn(C(=S)Nc2ccccc2F)nc14,IC50,A549,18.8 µM
same,IC50,HeLa,47.5 µM
same,IC50,Raji,11.1 µM
same,IC50,SGC-7901,20.7 µM
CCOC(=O)[C@]1(C)CCC[C@@]2(C)[C@@H]3CC[C@@]4(C)C[C@]3(CC[C@@H]21)c1cn(C(=S)Nc2cccc(F)c2)nc14,IC50,A549,33.8 µM
same,IC50,HeLa,> 50 µM
same,IC50,Raji,23.7 µM
same,IC50,SGC-7901,19.5 µM
CCOC(=O)[C@]1(C)CCC[C@@]2(C)[C@@H]3CC[C@@]4(C)C[C@]3(CC[C@@H]21)c1cn(C(=S)Nc2ccc(F)cc2)nc14,IC50,A549,33.5 µM
same,IC50,HeLa,13.3 µM
same,IC50,Raji,17.7 µM
same,IC50,SGC-7901,18.4 µM
CCOC(=O)[C@]1(C)CCC[C@@]2(C)[C@@H]3CC[C@@]4(C)C[C@]3(CC[C@@H]21)c1cn(C(=S)Nc2ccccc2Cl)nc14,IC50,A549,26.6 µM
same,IC50,HeLa,> 50 µM
same,IC50,Raji,21.1 µM
same,IC50,SGC-7901,26.2 µM
C[C@@]12CC[C@@H]3[C@@](CC[C@H]4[C@@]3(C)CCC[C@@]4(C)C(=O)O)(CC1=O)C2 [ISOSTEVIOL],IC50,A549,> 50 µM
same,IC50,HeLa,> 50 µM
same,IC50,Raji,> 50 µM
same,IC50,SGC-7901,> 50 µM
